# Laboratory results: patent publication US20240101972A1, “METHODS OF […]-[…] PRODUCTION” (priority 2021, published 2024)
# Where two headings read alike, the source gives them in different places.
# Experiments:
# [1] = test system: Rep with C-terminal degron under the control of TRE3G promoter; assay: AAV titer (qPCR) of Rep with C-terminal degron under TRE3G promoter control; type: cell-based
# Description: (§1) PEI pro transfection reagent (Polyplus), OptiMEM (Gibco) were used. […] These cell pellets were kept at −80 freezer.
# (§2) Frozen harvested cells were thawed and sonicated. […] Then DNaseI treatment was performed for 15 minutes.
# (§3) In this study a Tet response element containing promoter (TRE3G) is cloned in front of the Rep gene as shown at FIG. 18A. This promoter can be activated in the presence of Tet proteins and doxycycline induction. Rep with C-terminal Degron under Tet Response Element promoter control is shown to be functional for AAV production regulation. Large Rep is under the control of Tet promoter and small Rep expression is provided by p19 promoter (Samples 1-5). […] Shield1 can upregulate small Rep expression (Sample 1 vs Sample 2) and large Rep expression (Sample 3 vs Sample 4). A separate plasmid is used for supplying Tet-On 3G transactivator protein where transactivator protein expression is under the control of ubiquitous CMV promoter (Samples 1-4). The amino acid sequence of the transactivator protein is: […]
# [2] = test system: Rep with C-terminal FKBP degron; assay: rAAV production from Rep-degron constructs, read out by Huh7 transduction and luciferase; type: cell-based, human
# From the text: Various constructs were designed for the development of mechanism for controllable Rep accumulation and higher rAAV production. Rep transgene was tagged at N-terminus or C-terminus with a destabilization domain (degron) to confer instability and target the translated Rep protein product to proteasome for degradation. The Rep protein degradation can be reversed by addition of the Shield1 ligand. The degron was modified from a human gene encoding FK506-binding protein 12 (“FKBP12”). It was previously shown that F36V modifications of the protein improves its specificity to Shield1 over FK506 (Clackson et al, PNAS 1998). […] The amino acid sequence of the degron that was used in the present example, referred to herein as “FKBP”, having a F36V and an L107P mutation, was:
# Production of rAAV: Recombinant AAV were produced by transfection of human embryonic kidney (HEK293) cells grown in 6-well plates. The cells at 70-90% confluency were transfected with 3 μg of total DNA using jetOPTIMUS® DNA (PolyPlus)transfection reagent. The positive control rAAV produced with LK03 Rep/Cap plasmid were produced via triple transfection method. The plasmids were added in 1:1:1 ratio (1 helper: 1 ITR plasmid: 1 rep/cap plasmids). […]
# Transduction of cells: Huh7 cells were transduced with equivalent volume of cell lysate or the cell media containing the AAV vectors. […] Transduction efficiency was assessed in biological duplicates or triplicates. Culture media was replaced the following day, and samples were analyzed for transgene expression 48-72 hours after transduction. For detection of Luciferase expression, Huh7 cells were lysed in passive lysis buffer (Promega) and each biological sample was divided and plated to four wells of 96-well luminescence assay plate. Renilla Luciferase levels were determined using the Renilla Luciferase Assay Kit (Promega) and analyzed in a microplate luminometer (Spectramax) fitted with injectors.
# Shield1 was added to selected wells (FIG. 2). […] The Huh7 cells were then lysed and luciferase activity was measured for the detection of transgene activity.
# [3] = test system: FKBP degron tagged Rep proteins; assay: Western blot of FKBP degron tagged Rep proteins; type: cell-based, human
# Description: as §1
# (§4) Protein concentrations were measured with BCA kit (Pierce). […] Membranes were scanned with Odyssey (Li-Cor).
# (§5) As depicted in FIGS. 12A-12D “RHM4-1” and “RHM4-1v2” are the plasmids that express both Rep proteins with no degrons and RHM4-1 Cap. In contrast, “p40Cap plasmid” only expresses RHM4-1 Capsid, while “pAAV2 Rep plasmid” expresses Rep proteins from AAV2. The ITR plasmid used in these studies has Gaussia Luciferase as transgene.
# [4] = test system: FKBP degron tagged Rep proteins; assay: AAV titer (qPCR) with FKBP degron tagged Rep; type: cell-based, human
# Description: as §1, §2, §5
# [5] = target: T1, Rep with C-terminal degron under the control of TRE3G promoter (Homo sapiens, UniProt P62942, F37V); assay: Western blot of Rep with C-terminal degron under TRE3G promoter control; type: cell-based
# T1 construct: AAV Rep protein (fusion partner); expressed in transfected cells; host or cells: Expi293
# T1 sequence (P62942 other isoform, or with tags, fused parts or gaps F37V): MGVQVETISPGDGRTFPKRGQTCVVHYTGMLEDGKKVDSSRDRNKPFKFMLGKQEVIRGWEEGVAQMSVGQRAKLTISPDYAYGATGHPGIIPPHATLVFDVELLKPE
# Description: as §1, §4, §3
# [6] = test system: ecDHFR degron tagged Rep proteins
# Description: Expi293 cells were seeded 1.4E6 viable cells/mL in Expi293 media the day before transfection. Transfection was performed when the viable cells were between 2E6-3E6 cells/mL. PEI pro transfection reagent (Polyplus), OptiMEM (Gibco) were used. PEI:DNA ratio was 2 and 0.6 μg DNA per million cells was used. Triple transfections were performed with RHM4-1 Rep Cap, Helper and Gaussia luciferase plasmids. Split Rep and Cap plasmids were used in a ratio of 1:4 (Rep:Cap). In some cases split Rep Cap plasmids and TIR1 or CMV-Tet were used in a ratio of 1:3:1 (Rep:Cap:TIR1 or CMV-Tet). 1.5 mM SAHA was added after the addition of DNA-PEI complexes. In some cases next day Shield1 or TMP or Auxin and/or Doxycycline was added. For Doxycycline treated samples another treatment of Dox was performed 24 hr later than first treatment. Cells harvested at 4,8,24 hr post-treatment and 44 hr or 68 hr or 72 hr post-transfection; centrifuged and washed with cold PBS. These cell pellets were kept at −80 freezer.
# Cell pellets were lysed with RIPA buffer (Pierce) including protease and phosphatase inhibitors and EDTA on ice for 30 minutes. Lysates were centrifuged max speed for 15 minutes and supernatant was transferred to a new Eppendorf tube and used for Western. Protein concentrations were measured with BCA kit (Pierce). 30 lag protein per lane loaded for SDS-PAGE gels. These gels were transferred to either PVDF or Nitrocellulose membrane. Membranes were blocked with blocking buffer (Li-Cor) for 30 minutes at room temperature. Anti-AAV Rep clone 303.9 (ARP, cat #03-61069) purified mouse monoclonal antibody was diluted 500 times in either blocking buffer (Li-Cor) or antibody diluent (Li-Cor). Membranes were incubated overnight in cold room either rocking or non-rocking. Next day membranes were washed 3 times 10 minutes each with 1×TBST buffer (Invitrogen). Goat anti-mouse Alexa Flour 680 secondary antibody was diluted 1000 times in either blocking buffer (Li-Cor) or antibody diluent (Li-Cor). Membranes were incubated at room temperature rocking for 45 minutes. […]
# [7] = test system: ecDHFR degron tagged Rep proteins; remark: listed apart in the source
# Description: Expi293 cells were seeded 1.4E6 viable cells/mL in Expi293 media the day before transfection. Transfection was performed when the viable cells were between 2E6-3E6 cells/mL. PEI pro transfection reagent (Polyplus), OptiMEM (Gibco) were used. PEI:DNA ratio was 2 and 0.6 μg DNA per million cells was used. Triple transfections were performed with RHM4-1 Rep Cap, Helper and Gaussia luciferase plasmids. Split Rep and Cap plasmids were used in a ratio of 1:4 (Rep:Cap). In some cases split Rep Cap plasmids and TIR1 or CMV-Tet were used in a ratio of 1:3:1 (Rep:Cap:TIR1 or CMV-Tet). 1.5 mM SAHA was added after the addition of DNA-PEI complexes. In some cases next day Shield1 or TMP or Auxin and/or Doxycycline was added. For Doxycycline treated samples another treatment of Dox was performed 24 hr later than first treatment. Cells harvested at 4,8,24 hr post-treatment and 44 hr or 68 hr or 72 hr post-transfection; centrifuged and washed with cold PBS. These cell pellets were kept at −80 freezer. 1 mL of cells harvested 44 hr or 68 hr or 72 hr post-transfection for qPCR.
# Frozen harvested cells were thawed and sonicated. 300 μL sonicated cells were treated with Benzonase for 1 hour at 37° C. incubator on a rotator/shaker. Then DNaseI treatment was performed for 15 minutes. Reaction was stopped with stop reagent (0.2% SDS/5 mM EDTA/0.2M NaCl), heated at 95° C. for 10 minutes and centrifuged. […]
# [8] = test system: C-terminal Auxin Inducible Degron containing Rep; assay: AAV titer (qPCR) with Auxin Inducible Degron tagged Rep; type: cell-based; details: auxin and TIR1 all present (Sample 4), FIG. 14B
# Description: as §1, §2
# [9] = Rep constructs with C-terminal tagged degron, FIG. 15
compound,measurement,setting,value
"C[C@H]1c2cccc(O)c2C(=O)C2=C(O)[C@]3(O)C(=O)C(C(N)=O)=C(O)[C@@H](N(C)C)[C@@H]3[C@@H](O)[C@@H]21 [Doxycycline, doxycycline]",increase of AAV production from the basal levels,"[1]; Doxycycline induction, FIG. 16B",~29 times
CC[C@H](C(=O)N1CCCC[C@H]1C(=O)O[C@H](CCc1ccc(OC)c(OC)c1)c1cccc(OCCN2CCOCC2)c1)c1cc(OC)c(OC)c(OC)c1 [Shield1],rAAV production,"[2]; Rep with C-terminally linked degron in the presence of both Cap and Shield1, FIG. 6",significantly increased
same,rAAV production and transduction of the target cells,"[2]; Shield1 addition, Rep-only plasmid C-terminal degron, HEK293, FIG. 4",rescued
same,transduction efficiency,"[2]; of the wt Rep/Cap plasmid, Rep-only plasmid C-terminal degron with Shield1, FIG. 4",15-20%
same,Small and large Rep expression,"[3]; C-degron Rep, 4, 8, 24 hour after Shield1 vs untreated, FIG. 12B",higher
same,large Rep expression,"[3]; N-degron Rep, 4, 8, 24 hours after Shield1 vs untreated, FIG. 12A",increases
same,AAV titer,"[4]; N- and C-terminal degron constructs vs untreated controls, FIG. 12C",increases AAV titer
same,AAV production at different doses,[4]; [9],more effective at 500 nM concentration
same,small Rep expression,"[5]; Sample 1 vs Sample 2, FIG. 16A",upregulate
same,large Rep expression,"[5]; Sample 3 vs Sample 4 (with doxycycline), FIG. 16A",upregulate
same,Large and small Rep expression,"[5]; Samples 2, 4, 6, 8 vs 1, 3, 5, 7, FIG. 17A",increased
same,large Rep expression,"[5]; Shield1 added on top of doxycycline, Samples 4 and 8, FIG. 18B",increased further
same,AAV titer,"[1]; codon-modified Rep and small Rep under TRE3G and degron control, treated with Shield1 and Dox together, FIG. 20B",higher
"COc1cc(Cc2cnc(N)nc2N)cc(OC)c1OC [TMP, Trimethoprim]",Small and large Rep expression,"[6]; C-ecDegron Rep, 5 μM TMP, FIG. 13B",more
same,Small and large Rep expression,"[6]; C-terminal tagged ecDHFR degron, Samples 7 and 8, FIG. 14A",more
same,large Rep expression,"[6]; N-ecDegron Rep, 5 μM TMP, 24 hour time point, FIG. 13A",higher
same,AAV titer,"[7]; C-terminal ecDHFR degron constructs, FIG. 13C",increases
same,AAV production,"[7]; ecDHFR degron tagged Reps, Sample 8 vs Sample 7 (undetectable without TMP), FIG. 14B",can produce AAV
O=C(O)Cc1c[nH]c2ccccc12 [auxin],AAV production,[8],undetectable
CC[C@H](C(=O)N1CCCC[C@H]1C(=O)O[C@H](CCc1ccc(OC)c(OC)c1)c1ccccc1OCC(=O)NCCCCCCOc1cccc2c1C(=O)N(C1CCC(=O)NC1=O)C2=O)c1cc(OC)c(OC)c(OC)c1 (some centres unmarked) [dTag13],basal level of the AAV production,[4]; [9],did not decrease
